Assay results from patent publication US8999990B2, “Inhibitors of the renal outer medullary potassium channel” (Merck Sharp & Dohme Corp., priority 2011, dated 2015).

Target: T1, hROMK1 (Kir1.1) (Homo sapiens, UniProt P48048)
T1 construct: expressed in transfected cells
T1 sequence (P48048 1-391): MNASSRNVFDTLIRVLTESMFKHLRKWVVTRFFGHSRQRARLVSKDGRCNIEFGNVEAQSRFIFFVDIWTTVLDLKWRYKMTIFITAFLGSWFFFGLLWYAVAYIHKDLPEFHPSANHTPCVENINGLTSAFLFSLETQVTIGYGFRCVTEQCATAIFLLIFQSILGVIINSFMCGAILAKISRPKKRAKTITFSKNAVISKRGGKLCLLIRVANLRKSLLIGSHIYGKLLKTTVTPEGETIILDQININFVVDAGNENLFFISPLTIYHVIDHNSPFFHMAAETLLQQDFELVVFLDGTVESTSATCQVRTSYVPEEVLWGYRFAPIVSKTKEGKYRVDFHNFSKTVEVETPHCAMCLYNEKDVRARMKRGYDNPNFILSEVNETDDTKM
Assay: 86Rb+ Efflux Assay
Type: cell-based
Settings: CHO-DHFR- cells stably expressing hROMK1; 35 min incubation
Protocol: Several assays may be used to measure functional inhibition of the ROMK channel by compounds of the instant invention. One assay that was used to test the activity of compounds in the Examples is the functional ^86Rb^+ efflux assay described below, that measures the ability of ROMK to permeate ^86Rb^+, in the absence or presence of test compound. Under control conditions, cells loaded with ^86Rb^+ and incubated in Rb^+-free medium display a time-dependent efflux of the isotope, the rate of which depends on number of functional channels. When cells are incubated in the presence of a channel inhibitor, efflux of ^86Rb^+ is prevented in a concentration-dependent manner, and IC50 values of inhibition by compounds can be accurately determined. This assay has been established with cell lines expressing either human, rat or dog ROMK channels, and can operate in 96- or 384-well format. Importantly, the human, rat, and dog ^86Rb^+ efflux assays can be carried out in the presence of up to 100% serum allowing, therefore, an accurate estimation of the effect of protein binding on the inhibitory activity of compounds of interest. Another ROMK functional assay used to test the activity of compounds in the Examples (described below) makes use of the ability of thallium to permeate through open ROMK channels and increase the fluorescence of a dye previously loaded into the cells. Under control conditions, cells loaded with dye and exposed to thallium-containing medium display a time-dependent increase in fluorescence, the rate of which depends on number of functional channels. When cells are incubated in the presence of a channel inhibitor, the increase in fluorescence is attenuated in a concentration-dependent manner, and IC50 values of inhibition by compounds can be accurately determined. This assay has been established with cell lines expressing either human, or rat ROMK channels, and operates in 384-well format.
CHO-DHFR-cells stably expressing hROMK1 (Kir1.1) are grown at 37° C. in a 10% CO2 humidified incubator in Iscove's Modified Dulbecco's Medium (Gibco 12440) supplemented with HT Supplement, Penicillin/Streptomycin/Glutamine, G418 (500 μg/ml) and 10% FBS. Cells are seeded in Sterile and Tissue Culture Treated Packard CulturPlate White Opaque Microplates at a concentration of 5.0E5-7.0E5 cells/ml-PerkinElmer 6005680 (96-well); Corning 3707 (384 well) in complete media containing 1.5 μCi/ml Rubidium-86. Cells are incubated in 37° C.-10% CO2 incubator overnight. On the day of the experiment, the media is removed and cells are washed with low K assay buffer. ^86Rb^+ efflux is initiated after addition of assay buffer±test compound followed by 35 min incubation at room temperature. ROMK-sensitive component of efflux is defined in the presence of 10 mM BaCl2. Assay buffer is removed and transferred to a plate and cells are solubilized in the presence of SDS. Radioactivity associated with assay and cell plate is determined.
• 1. Remove cell media and wash cells with low K assay buffer (126.9 mM NaCl, 4.6 mM KCl, 2 mM CaCl2, 1 mM MgCl2, 10 mM Hepes/NaOH; pH 7.4) • 200 μl for 96-well plate; 70 μl for 384-well plate • 2. Add assay buffer (121.5 mM NaCl, 10 mM KCl, 2 mM CaCl2, 1 mM MgCl2, 10 mM Hepes/NaOH; pH 7.4)±test compound to cells • 100 μl for 96-well plate; 50 μl for 384-well plate • 3. Incubate at ambient temperature (22-24° C.) for 35 min • 4. Remove assay buffer add it to a 96- or 384-well plate containing Microscint-20 • 96-well Plate: 100 μl buffer, 170 μl MicroScint 20 (for TopCount) • 384-well plate: 20 μl buffer, 50 μl Optiphiase (for MicroLux) • 5. Completely remove remaining assay buffer from cell plate • 6. Solubilize cells with 1% SDS; than add MicroScint or Optiphase • 96-well Plate: 30 μl SDS, 170 μl MicroScint 20 (for TopCount) • 384-well plate: 20 μl SDS, 50 μl Optiphiase (for MicroLux) • 7. Seal both cell and supernatant plates and count Data Calculation— […]

Structure (SMILES)	IC50 [nM]
O=C1OCc2cc(CCN3CCN(CCc4ccc5c(c4)COC5=O)C(=O)C3)ccc21 [Example 29, 1,4-Bis[2-(1-oxo-1,3-dihydro-2-benzofuran-5-yl)ethyl]piperazin-2-one]	420
COc1cc([N+](=O)[O-])ccc1CCN1CCN(CCc2ccc([N+](=O)[O-])cc2)C(=O)C1 [Example 11, 4-[2-(2-Methoxy-4-nitrophenyl)ethyl]-1-[2-(4-nitrophenyl)ethyl]piperazin-2-one]	140
O=C1CN(CCc2ccc([N+](=O)[O-])cc2F)CCN1CCc1ccc([N+](=O)[O-])cc1 [Example 12, 4-[2-(2-Fluoro-4-nitrophenyl)ethyl]-1-[2-(4-nitrophenyl)ethyl]piperazin-2-one]	140
N#Cc1ccc2c(c1)CCC2CN1CCN(CCc2ccc3c(c2)COC3=O)CC1=O (racemic) [Example 40, 1-({2-Oxo-4-[2-(1-oxo-1,3-dihydro-2-benzofuran-5-yl)ethyl]piperazin-1-yl}methyl)-2,3-dihydro-1H-indene-5-carbonitrile]	120
N#Cc1ccc(CCN2CCN(CCc3ccc([N+](=O)[O-])cc3)C(=O)C2)cc1 [Example 5, 4-(2-{4-[2-(4-Nitrophenyl)ethyl]-3-oxopiperazin-1-yl}ethyl)benzonitrile]	120
O=C1CN(CCc2ccc([N+](=O)[O-])cc2)CCN1CCc1ccc([N+](=O)[O-])cc1 [Example 1, 1,4-bis[2-(4-nitrophenyl)ethyl]piperazin-2-one]	70
CC1C(=O)N(CCc2ccc([N+](=O)[O-])cc2)CCN1CCc1ccc([N+](=O)[O-])cc1 (racemic) [Example 6, 3-Methyl-1,4-bis[2-(4-nitrophenyl)ethyl]piperazin-2-one]	270
O=C1CN(CCc2ccc([N+](=O)[O-])c(F)c2)CCN1CCc1ccc([N+](=O)[O-])cc1 [Example 18, 4-[2-(3-Fluoro-4-nitrophenyl)ethyl]-1-[2-(4-nitrophenyl)ethyl]piperazin-2-one]	40
N#Cc1ccc2c(c1)CCC(N1CCN([C@@H]3CCc4cc(C#N)ccc4C3)C(=O)C1)C2 (stereo partly drawn) [Example 17, (6R)-6,6′-(2-oxopiperazine-1,4-diyl)-di-(5,6,7,8-tetrahydronaphthalene-2-carbonitrile)]	70
O=C1CN(CCc2ccc([N+](=O)[O-])cc2C(F)(F)F)CCN1CCc1ccc([N+](=O)[O-])cc1 [Example 4, 1-[2-(4-Nitrophenyl)ethyl]-4-{2-[4-nitro-2-(trifluoromethyl)phenyl]ethyl}piperazin-2-one]	310
Cc1cc([N+](=O)[O-])ccc1CCN1CCN(CCc2ccc([N+](=O)[O-])cc2)C(=O)C1 [Example 19, 4-[2-(2-Methyl-4-nitrophenyl)ethyl]-1-[2-(4-nitrophenyl)ethyl]piperazin-2-one]	50

Further lines, results first:

IC50 [nM]	Structure (SMILES)
40	N#Cc1ccc2c(c1)CCC(N1CCN(CCc3ccc([N+](=O)[O-])cc3)C(=O)C1)C2 (racemic) [Example 2, 6-(4-(4-nitrophenethyl)-3-oxopiperazin-1-yl)-5,6,7,8-tetrahydronaphthalene-2-carbonitrile]
80	COc1cc([N+](=O)[O-])ccc1CCN1CCN(C2CCc3cc(C#N)ccc3C2)C(=O)C1 (racemic) [Example 9, 6-{4-[2-(2-Methoxy-4-nitrophenyl)ethyl]-2-oxopiperazin-1-yl}-5,6,7,8-tetrahydronaphthalene-2-carbonitrile]
310	N#Cc1ccc2c(c1)CCC(N1CCN(CCc3ccc4nonc4c3)CC1=O)C2 (racemic) [Example 13, 6-{4-[2-(2,1,3-Benzoxadiazol-5-yl)ethyl]-2-oxopiperazin-1-yl}-5,6,7,8-tetrahydronaphthalene-2-carbonitrile]
60	N#Cc1ccc2c(c1)CCC(N1CCN(CCc3ccc([N+](=O)[O-])cc3)CC1=O)C2 (racemic) [Example 23, 6-{4-[2-(4-Nitrophenyl)ethyl]-2-oxopiperazin-1-yl}-5,6,7,8-tetrahydronaphthalene-2-carbonitrile]
30	N#Cc1ccc2c(c1)CCC(N1CCN(CCc3ccc4c(c3)COC4=O)CC1=O)C2 (racemic) [Example 26, 6-{2-Oxo-4-[2-(1-oxo-1,3-dihydro-2-benzofuran-5-yl)ethyl]piperazin-1-yl}-5,6,7,8-tetrahydronaphthalene-2-carbonitrile]
130	N#Cc1ccc2c(c1)CC(N1CCN(CCc3ccc4c(c3)COC4=O)CC1=O)C2 (racemic) [Example 44, 2-{2-Oxo-4-[2-(1-oxo-1,3-dihydro-2-benzofuran-5-yl)ethyl]piperazin-1-yl}-2,3-dihydro-1H-indene-5-carbonitrile]
410	N#Cc1ccc2c(c1)CCC(N1CCN(CCc3ccc4c(c3)COC4=O)C(=O)C1)C2 (racemic) [Example 28, 6-{3-Oxo-4-[2-(1-oxo-1,3-dihydro-2-benzofuran-5-yl)ethyl]piperazin-1-yl}-5,6,7,8-tetrahydronaphthalene-2-carbonitrile]
120	N#Cc1ccc2c(c1)CCC(N1CCN(CCc3ccc([N+](=O)[O-])c(F)c3)CC1=O)C2 (racemic) [Example 21, 6-{4-[2-(3-Fluoro-4-nitrophenyl)ethyl]-2-oxopiperazin-1-yl}-5,6,7,8-tetrahydronaphthalene-2-carbonitrile]
380	N#Cc1ccc2c(c1)CC(CN1CCN(CCc3ccc4c(c3)COC4=O)CC1=O)C2 (racemic) [Example 41, 2-({2-Oxo-4-[2-(1-oxo-1,3-dihydro-2-benzofuran-5-yl)ethyl]piperazin-1-yl}methyl)-2,3-dihydro-1H-indene-5-carbonitrile]
410	N#Cc1ccc2c(c1)CCC(N1CCN(CCc3ccc4c(c3Cl)COC4=O)CC1=O)C2 (racemic) [Example 31, 6-{4-[2-(4-Chloro-1-oxo-1,3-dihydro-2-benzofuran-5-yl)ethyl]-2-oxopiperazin-1-yl}-5,6,7,8-tetrahydronaphthalene-2-carbonitrile]
280	N#Cc1ccc2c(c1)CC(N1CCN(CCc3ccc4c(c3)COC4=O)CC1=O)CC2 (racemic) [Example 37, 7-{2-Oxo-4-[2-(1-oxo-1,3-dihydro-2-benzofuran-5-yl)ethyl]piperazin-1-yl}-5,6,7,8-tetrahydronaphthalene-2-carbonitrile]
